Measurements published in patent publication US7998713B2, “Treatment of biomass to obtain ethanol” (E. I. du Pont de Nemours and Company, priority 2005, dated 2011).

Tested on: Z. mobilis strain 8b
Test: Effect of acetamide and acetic acid on Zymomonas growth (toxicity test in shake flasks)
Assay type: cell-based, Zymomonas mobilis
Conditions: pH 6.0, 30° C., 150 rpm, FIG. 1
From the text: Fermentation medium was composed of 10 g/L yeast extract, 2 g/L KH2PO4, 70 g/L glucose, 40 g/L xylose and 0.1 M MES buffer.

[1] = medium supplemented with 6 g/L acetamide vs unsupplemented control
[2] = medium supplemented with 7.2 g/L acetic acid vs unsupplemented control

Row | SMILES | final density of Z. mobilis [1] | growth rate of Z. mobilis [1] | cell yield (as measured by dry cell mass) [2] | growth rate of Z. mobilis [2]
1 | CC(N)=O [acetamide] | no influence | no influence | – | –
2 | CC(=O)O [acetic acid] | – | – | lower cell yield | reduced growth rate
